One data set has as its system Gaeumannomyces graminis. Nature of the data set: Gaeumannomyces graminis / liquid culture (take-all of cereals). It is filed as cell-based. To be noted: growth inhibition determined photometrically 4-5 days after application, vs untreated control, read-out: disease control.
For data set [1], the system named is Glomerella lagenarium (Colletotrichum lagenarium). Nature of the data set: Glomerella lagenarium (Colletotrichum lagenarium) / liquid culture (anthracnose). It is filed as cell-based. To be noted: Colletotrichum orbiculare, growth inhibition measured photometrically 3-4 days after application, vs untreated control, read-out: disease control.
Data set [2] concerns Monographella nivalis (Microdochium nivale). Kind of data set: Monographella nivalis (Microdochium nivale) / liquid culture (foot rot cereals). Format: cell-based. To be noted: 96 h, growth inhibition determined photometrically 4-5 days after application, vs untreated control, read-out: disease control.
The subject of data set [3] is Botryotinia fuckeliana (Botrytis cinerea). Kind of data set: Botryotinia fuckeliana (Botrytis cinerea) / liquid culture (gray mould). To be noted: growth inhibition determined photometrically 3-4 days after application, vs untreated control, read-out: disease control. Format: cell-based.
In a further data set the test system is Pyrenophora teres. Kind of data set: Pyrenophora teres / liquid culture (net blotch). It is filed as cell-based. To be noted: growth inhibition determined photometrically 3-4 days after application, vs untreated control.
The test system of the next data set is Fusarium culmorum. Kind of data set: microbe, parasite or virus in culture. It is filed as cell-based. To be noted: 72 h, read-out: disease control.
Data set [4] has as its system Magnaporthe grisea (Pyricularia oryzae). Kind of data set: microbe, parasite or virus in culture. It is filed as cell-based. To be noted: 72 h, read-out: control of Magnaporthe grisea.
Data set [5] has as its system Mycosphaerella graminicola (Septoria tritici). Kind of data set: Mycosphaerella graminicola (Septoria tritici) / liquid culture (Septoria blotch). It is filed as cell-based. To be noted: Zymoseptoria tritici, 96 h, growth inhibition determined photometrically 4-5 days after application, vs untreated control, read-out: disease control.
In another data set the test system is Sclerotinia sclerotiorum. Kind of data set: Sclerotinia sclerotiorum / liquid culture (cottony rot). To be noted: 72 h, read-out: control of Sclerotinia sclerotiorum.

Protocol for Sclerotinia sclerotiorum: Sclerotinia sclerotiorum/Liquid Culture (Cottony Rot)
Mycelia fragments of a newly grown liquid culture of the fungus are directly mixed into nutrient broth (Vogels broth). After placing a (DMSO) solution of test compound into a microtiter plate (96-well format) the nutrient broth containing the fungal material is added. The test plates are incubated at 24° C. and the inhibition of growth is determined photometrically 3-4 days after application.

The compound `CC1(C)N=C(n2cnc3c(Br)cccc32)c2cccc(F)c2C1(C)C` [E-4] displayed a melting point of 48 to 49 °C. Further, in the data set with Gaeumannomyces graminis, the inhibition of growth at 200 ppm is ≥ 80%. Moreover, the inhibition of growth at 200 ppm in [1] was ≥ 80%. For the same compound, in data set [2], the inhibition of growth at 200 ppm is ≥ 80%. For the same compound, the inhibition of growth at 200 ppm in data set [3] was ≥ 80%. In addition, in the data set with Pyrenophora teres, the inhibition of growth at 20 ppm is ≥ 80%. Further, the inhibition of growth at 200 ppm with Fusarium culmorum was ≥ 80%. For the same compound, the inhibition of growth at 20 ppm in data set [4] was ≥ 80%.

For `CCc1cccc2c1ncn2C1=NC(C)(C)C(C)(C)c2c(F)cccc21` [E-14], the melting point fell in the range of 87 to 88 °C. In the data set with Gaeumannomyces graminis, the inhibition of growth at 200 ppm was ≥ 80%. In addition, in data set [1], the inhibition of growth at 200 ppm is ≥ 80%. For the same compound, in data set [2], the inhibition of growth at 200 ppm is ≥ 80%. In addition, the inhibition of growth at 200 ppm in data set [3] was ≥ 80%. Moreover, the inhibition of growth at 20 ppm in the data set with Pyrenophora teres is ≥ 80%. Besides, the inhibition of growth at 200 ppm with Fusarium culmorum was ≥ 80%. In addition, the inhibition of growth at 20 ppm in data set [4] was ≥ 80%.

Take `CC(C)c1cccc2c1ncn2C1=NC(C)(C)C(C)(C)c2c(F)cccc21` [E-12]: the melting point fell in the range of 113 to 114 °C. The inhibition of growth at 200 ppm in data set [1] was ≥ 80%. Further, in data set [2], the inhibition of growth at 200 ppm was ≥ 80%. The inhibition of growth at 200 ppm in data set [3] was ≥ 80%. For the same compound, the inhibition of growth at 20 ppm with Pyrenophora teres is ≥ 80%. Moreover, the inhibition of growth at 20 ppm in [4] was ≥ 80%.

Regarding `Cc1cccc2c1ncn2C1=NCC2(CCC2)c2ccccc21` [E-54], the inhibition of growth at 200 ppm in [1], in data set [2], in [3] and in [5] was ≥ 80% throughout. Further, in data set [4], the inhibition of growth at 20 ppm is ≥ 80%.

`Cc1ccc2c(ncn2C2=NC(C)(C)C(=O)c3cc(Cl)ccc32)c1C` [E-36] returned a melting point of 196 to 199 °C. For the same compound, in data set [3], the inhibition of growth at 200 ppm was ≥ 80%. Further, the inhibition of growth at 200 ppm in the data set on Fusarium culmorum is ≥ 80%. Also, the inhibition of growth at 20 ppm in [4] is ≥ 80%. Moreover, the inhibition of growth at 200 ppm in data set [5] is ≥ 80%.

On to `C=Cc1cccc2c1ncn2C1=NC(C)(C)C(C)(C)c2c(F)cccc21` [E-13], for which the melting point fell in the range of 70 to 71 °C. The inhibition of growth at 200 ppm in [1] is ≥ 80%. Further, the inhibition of growth at 200 ppm in data set [2] was ≥ 80%. Besides, the inhibition of growth at 200 ppm in data set [3] is ≥ 80%. Further, in the data set with Pyrenophora teres, the inhibition of growth at 20 ppm is ≥ 80%. In [4], the inhibition of growth at 20 ppm is ≥ 80%.

For the compound `Cc1cccc2c1ncn2C1=NCC2(CCCC2)c2ccccc21` [E-53], the inhibition of growth at 200 ppm in data set [2], in [3] and in [5] was ≥ 80% throughout. For the same compound, the inhibition of growth at 20 ppm in [4] is ≥ 80%.

The compound `Cc1ccc2c(ncn2C2=NC(C)(C)C(=O)c3ccccc32)c1C` [E-25] displayed a melting point of 159 to 161 °C. Besides, the inhibition of growth at 200 ppm in data set [1] is ≥ 80%. Also, the inhibition of growth at 200 ppm in data set [2] was ≥ 80%. The inhibition of growth at 200 ppm in data set [3] was ≥ 80%. Further, in the data set on Pyrenophora teres, the inhibition of growth at 20 ppm is ≥ 80%. The inhibition of growth at 20 ppm in the data set on Sclerotinia sclerotiorum was ≥ 80%. Also, the inhibition of growth at 200 ppm in the data set on Fusarium culmorum is ≥ 80%. Besides, the inhibition of growth at 20 ppm in [4] was ≥ 80%.

On to `Cc1ccc2c(ncn2C2=NC(C)(C)C(F)(F)c3ccccc32)c1C` [E-23], for which the inhibition of growth at 200 ppm (in the data set with Gaeumannomyces graminis; in [1]; in [2]; in data set [3]; in the data set on Fusarium culmorum) was ≥ 80% throughout. Besides, the inhibition of growth at 20 ppm (in the data set with Pyrenophora teres; with Sclerotinia sclerotiorum; in [4]) was ≥ 80% in each case.

Take `Cc1cccc2c1ncn2C1=NC(C)(C)C2(CC2)c2ccccc21` [E-9]: the inhibition of growth at 200 ppm (in the data set on Gaeumannomyces graminis; in data set [1]; in data set [2]; in data set [3]; with Fusarium culmorum) was ≥ 80% in each case. Moreover, the inhibition of growth at 20 ppm (in the data set on Pyrenophora teres; in data set [4]) was ≥ 80% each time.

`Cc1cccc2c1C(=O)C(C)(C)N=C2n1cnc2c(C)c(C)ccc21` [E-27]: the melting point is 145 to 149 °C. For the same compound, the inhibition of growth at 200 ppm in data set [1] was ≥ 80%. Also, the inhibition of growth at 200 ppm in [2] is ≥ 80%. In [3], the inhibition of growth at 200 ppm is ≥ 80%. Besides, the inhibition of growth at 20 ppm with Pyrenophora teres was ≥ 80%. The inhibition of growth at 20 ppm in the data set with Sclerotinia sclerotiorum was ≥ 80%. Besides, the inhibition of growth at 200 ppm with Fusarium culmorum was ≥ 80%. The inhibition of growth at 20 ppm in [4] is ≥ 80%.

As to `Cc1ccc2c(ncn2C2=NC(C)(C)C(F)(F)c3cc(F)ccc32)c1C` [E-56], the inhibition of growth at 200 ppm (in data set [1]; in data set [2]; in [3]; in the data set with Fusarium culmorum; in data set [5]) was ≥ 80% throughout. Further, the inhibition of growth at 20 ppm (with Sclerotinia sclerotiorum; in data set [4]) was ≥ 80% in each case.

The compound `Cc1cccc2c1ncn2C1=NC(C)(C)C(=O)c2ccccc21` [E-10] yielded a melting point of 123 to 125 °C. The inhibition of growth at 200 ppm in data set [1] is ≥ 80%. Further, the inhibition of growth at 200 ppm in [2] was ≥ 80%. Also, the inhibition of growth at 200 ppm in data set [3] was ≥ 80%. Moreover, the inhibition of growth at 20 ppm with Pyrenophora teres was ≥ 80%. For the same compound, the inhibition of growth at 20 ppm in [4] was ≥ 80%.

With `Cc1cccc2c1ncn2C1=NC(C)(C)C(F)(F)c2ccccc21` [E-15], the inhibition of growth at 200 ppm (with Gaeumannomyces graminis; in [1]; in data set [2]; in [3]; in the data set with Fusarium culmorum) was ≥ 80% throughout. In addition, the inhibition of growth at 20 ppm (in the data set with Pyrenophora teres; in the data set on Sclerotinia sclerotiorum; in data set [4]) was ≥ 80% throughout.

Take `CC1(C)N=C(n2cnc3c(F)cccc32)c2cccc(F)c2C1(C)C` [E-7]: the inhibition of growth at 200 ppm (in the data set on Gaeumannomyces graminis; in data set [1]; in data set [2]; in [3]; with Fusarium culmorum) was ≥ 80% throughout. For the same compound, the inhibition of growth at 20 ppm (in the data set on Pyrenophora teres; in [4]) was ≥ 80% in each case.

As for `Cc1ccc2c(ncn2C2=NC(C)(C)C(F)(F)c3c(F)cccc32)c1C` [E-19], the inhibition of growth at 200 ppm (in the data set on Gaeumannomyces graminis; in [1]; in [2]; in data set [3]; in the data set on Fusarium culmorum) was ≥ 80% throughout. Further, the inhibition of growth at 20 ppm (in the data set on Pyrenophora teres; in the data set on Sclerotinia sclerotiorum; in data set [4]) was ≥ 80% throughout.

For the compound `C=C(C)c1cccc2c1ncn2C1=NC(C)(C)C(C)(C)c2c(F)cccc21` [E-11], the inhibition of growth at 200 ppm in [1], in [2] and in data set [3] was ≥ 80% each time. For the same compound, the inhibition of growth at 20 ppm (with Pyrenophora teres; in data set [4]) was ≥ 80% each time.

The compound `CC1(C)N=C(n2cnc3c(Cl)cccc32)c2cccc(F)c2C1(C)C` [E-17] came in with a melting point of 50 to 51 °C. The inhibition of growth at 200 ppm with Gaeumannomyces graminis is ≥ 80%. The inhibition of growth at 200 ppm in data set [1] is ≥ 80%. The inhibition of growth at 200 ppm in [2] was ≥ 80%. Moreover, in data set [3], the inhibition of growth at 200 ppm was ≥ 80%. In the data set on Pyrenophora teres, the inhibition of growth at 20 ppm is ≥ 80%. In the data set on Sclerotinia sclerotiorum, the inhibition of growth at 20 ppm is ≥ 80%. Besides, in the data set with Fusarium culmorum, the inhibition of growth at 200 ppm is ≥ 80%. In data set [4], the inhibition of growth at 20 ppm is ≥ 80%.

As for `CC1(C)N=C(n2cnc3c4c(ccc32)CCC4)c2ccccc2C1(F)F` [E-55], the inhibition of growth at 200 ppm (in data set [1]; in [2]; in [3]; with Fusarium culmorum; in [5]) was ≥ 80% throughout. Besides, the inhibition of growth at 20 ppm (in the data set on Sclerotinia sclerotiorum; in data set [4]) was ≥ 80% in each case.

On to `Cc1cccc2c1ncn2C1=NC(C)(C)C(F)(F)c2c(F)cccc21` [E-20], for which the inhibition of growth at 200 ppm (in [1]; in [2]; in data set [3]; in the data set with Fusarium culmorum) was ≥ 80% throughout. Further, the inhibition of growth at 20 ppm (in the data set with Pyrenophora teres; in the data set on Sclerotinia sclerotiorum; in data set [4]) was ≥ 80% each time.

`Cc1c(F)ccc2c1ncn2C1=NC(C)(C)C(=O)c2cc(Cl)ccc21` [E-35] returned a melting point of 133 to 136 °C. Further, the inhibition of growth at 200 ppm in data set [3] was ≥ 80%. Moreover, the inhibition of growth at 200 ppm in the data set with Fusarium culmorum is ≥ 80%. Further, the inhibition of growth at 20 ppm in data set [4] was ≥ 80%. The inhibition of growth at 200 ppm in [5] is ≥ 80%.

Take `Cc1cccc2c1C(=O)C(C)(C)N=C2n1cnc2c(C)cccc21` [E-26]: the melting point fell in the range of 96 to 101 °C. The inhibition of growth at 200 ppm in data set [1] was ≥ 80%. The inhibition of growth at 200 ppm in data set [2] is ≥ 80%. Besides, the inhibition of growth at 200 ppm in data set [3] is ≥ 80%. Besides, the inhibition of growth at 20 ppm in the data set on Pyrenophora teres is ≥ 80%. For the same compound, in the data set with Sclerotinia sclerotiorum, the inhibition of growth at 20 ppm was ≥ 80%. For the same compound, in the data set with Fusarium culmorum, the inhibition of growth at 200 ppm was ≥ 80%. The inhibition of growth at 20 ppm in data set [4] was ≥ 80%.
